Results on 19 compounds are retold here after patent US20160052898A1, “NOVEL COMPOUNDS” (BAYER PHARMA AKTIENGESELLSCHAFT, priority 2013, published 2016).

Bounds are passed on as bounds.

Format in all cases: cell-based
In assay [1] the test system is constitutive active colorectal cancer cell (CRC) Wnt pathway. The assay can be described thus: HCT116 Super TopFlash cellular reporter assay (constitutive active Wnt pathway). The conditions noted are these: Homo sapiens, HCT-116, 36 h, HCT116 TOP reporter cells, luciferase expression, 36 hours incubation, 50 μM to 15 nM. The method, boiled down:
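HCT116 cells (β-catenin ΔS45) stably carrying Super TopFlash, with a parallel FOP-control line, were plated 24 h ahead. They were exposed 36 h at 37 °C, 5% CO2 to compound from a 50 μM–15 nM, 3.16-fold pre-dilution series in CAFTY buffer (pH 7.4, 2 mM Ca2+, 0.01% BSA). Wnt signalling was read as luciferase luminescence.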

Assay [2] relates to HCT116 FOP control reporter cell line. Briefly: HCT116 FOP control vector reporter assay (non-functional TCF elements). The settings on record: Homo sapiens, HCT-116, 36 h, HCT116 FOP control reporter cells, luciferase expression, 36 hours incubation, 50 μM to 15 nM; read-out: HCT116 FOPFlash IC50. The gist of the method: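 Stable HCT116 line carrying the non-functional FOP luciferase construct, 10000 cells/well plated 24 hrs before. Compounds 50 μM to 15 nM (3.16-fold steps) in CAFTY buffer pH 7.4 with 2 mM Ca2+, 36 hours at 37° C; luciferase luminescence read.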

The subject of assay [3] is wildtype Wnt pathway. The assay can be described thus: HEK293 Super TopFlash cellular reporter assay, Wnt-3a stimulated (wildtype Wnt pathway). The settings on record: Homo sapiens; HEK293 TOP reporter cells, EC50 concentration of recombinant Wnt-3a, 16 hours incubation; read-out: HEK TOP OncoFlash IC50. As for the experimental part:
(§1) In order to determine the inhibitory activity of compounds for the WT Wnt signaling pathway, the Super TopFlash vector respectively FOP vector were cotransfected with pcDNA3 into HEK293 and stable transfected HEK293 cells were isolated by antibiotic selection. […] The recombinant human Wnt-3a was thereby used between 2500 and 5 ng/ml in two-fold dilution steps. […] Measurement of luciferase expression was done as described for the constitutive active Wnt assay.
In order to discover and characterize small molecules which inhibit the wildtype Wnt pathway, a cellular reporter assay was employed. The corresponding assay cell was generated by transfection of the mammalian cell line HEK293 (ATCC, #CRL-1573) with the Super TopFlash vector (Morin, Science 275, 1997, 1787-1790; Molenaar et al., Cell 86 (3), 1996, 391-399). The HEK293 cell line is cultivated at 37° C. and 5% CO2 in DMEM (Life Technologies, #41965-039), supplemented with 2 mM glutamine, 20 mM HEPES, 1.4 mM pyruvate, 0.15% Na-bicarbonate and 10% foetal bovine serum (GIBCO, #10270). Stable transfectants were generated by selection with 300 μg/ml Hygromycin.
(§2) In preparation of the assay, the two cell lines were plated 24 hours before beginning the test at 10000 cells per well in a 384 micro titre plate (MTP) in […] growth medium. […] The recombinant human Wnt-3a was thereby applied between 2500 and 5 ng/ml in two-fold dilution steps. Selective inhibitory activity for small molecules on the wildtype Wnt pathway was determined after parallel incubation of both (TOP and FOP) HEK293 reporter cell lines with a compound dilution series from 50 μM to 15 nM in steps of 3.16-fold dilutions in CAFTY buffer (130 mM NaCl, 5 mM KCl, 20 mM HEPES, 1 mM MgCl2, 5 mM NaHCO3, pH 7.4) containing 2 mM Ca^2+ and 0.01% BSA.
(§3) The compounds were thereby serially prediluted in 100% DMSO and thereafter 50 fold into the CAFTY compound dilution buffer (described above).

For assay [4], the system named is HEK293 FOP control reporter cell line. Briefly: HEK293 FOP control vector reporter assay. The conditions noted are these: Homo sapiens; HEK293 FOP control reporter cells, EC50 concentration of recombinant Wnt-3a, 16 hours incubation; read-out: HEK FOP IC50. As for the experimental part:
as §1
In a parallel approach, HEK293 cells were cotransfected with the FOP control vector and pcDNA3. The FOP vector is identical to the TOP construct, but it contains instead of functional TCF elements a randomized, non-functional sequence. For this transfection a stable transfected cell line was generated as well, based on selection with Geneticin (1 mg/ml).
as §2, §3

As to `N#Cc1ccc(C(=O)Nc2ccc(-c3ccccc3)cc2)cc1NC(=O)CN1CCOCC1` [Example 18, N-(biphenyl-4-yl)-4-cyano-3-[(morpholin-4-ylacetyl)amino]benzamide], the half-inhibitory concentration (IC50) in assay [1] was 0.0587 µM; in assay [2], not below 50 µM; in assay [3], 0.69 µM; in assay [4], 19 µM.

Regarding `COCCNC(=O)c1ccc(C(=O)Nc2ccc(-c3ccccc3)cc2)cc1NC(=O)CN1CCOCC1` [Example 106, N^4-(biphenyl-4-yl)-N^1-(2-methoxyethyl)-2-[(morpholin-4-ylacetyl)amino]terephthalamide], the IC50 in assay [1] is 0.0172 µM; in assay [2] it was not below 50 µM; in assay [3], 0.076 µM; in assay [4], not below 50 µM.

As for `COc1ccc(NC(=O)c2ccc(-c3ccccc3)cc2)cc1NC(=O)CN1CCC(OC)CC1` [Example 39, N-(4-methoxy-3-{[(4-methoxypiperidin-1-yl)acetyl]amino}phenyl)biphenyl-4-carboxamide], the IC50 in assay [1] is 2.2 µM; in assay [2], not below 50 µM; in assay [3], 1.1 µM; in assay [4] it was not below 50 µM.

`C[C@@H](C(=O)Nc1cc(NC(=O)c2ccc(-c3ccccc3)cc2)ccc1OC(F)(F)F)N1CC2CCC(C1)O2` [Example 59, N-[3-{[(2S)-2-(8-oxa-3-azabicyclo[3.2.1]oct-3-yl)propanoyl]amino}-4-(trifluoromethoxy)phenyl]biphenyl-4-carboxamide]: the IC50 in assay [1] was 0.111 µM; in assay [2], 40 µM; in assay [3] it was 1.7 µM; in assay [4], not below 50 µM.

In the case of `COc1cccc(-c2ccc(C(=O)Nc3ccc(OC)c(NC(=O)CN4CCOCC4)c3)cc2)c1` [Example 80, 3′-methoxy-N-{4-methoxy-3-[(morpholin-4-ylacetyl)amino]phenyl}biphenyl-4-carboxamide], the 50% inhibitory concentration (IC50) in assay [1] was 3.3 µM; in assay [2], not below 50 µM; in assay [3], 3.8 µM; in assay [4] it was not below 50 µM.

With `COc1ccc(C(=O)Nc2ccc(-c3ccccc3)cc2)cc1NC(=O)Cn1cccn1` [Example 2, N-(biphenyl-4-yl)-4-methoxy-3-[(1H-pyrazol-1-ylacetyl)amino]benzamide], the IC50 is 3.2 µM in assay [1], not below 50 µM in assay [2], 1.48 µM in assay [3] and 50 µM in assay [4].

Take `COc1ccc(NC(=O)c2ccc(-c3cccc(C#N)c3)cc2)cc1NC(=O)CN1CCOCC1` [Example 72, 3′-cyano-N-{4-methoxy-3-[(morpholin-4-ylacetyl)amino]phenyl}biphenyl-4-carboxamide]: the IC50 in assay [1] is 3.75 µM; in assay [2], not below 50 µM; in assay [3], 1.3 µM; in assay [4] it was not below 50 µM.

For `COc1ccc(NC(=O)c2ccc(-c3ccc(N)cc3)cc2)cc1NC(=O)CN1CCOCC1` [Example 83, 4′-amino-N-{4-methoxy-3-[(morpholin-4-ylacetyl)amino]phenyl}biphenyl-4-carboxamide], the IC50 in assay [1] is 0.319 µM; in assay [2] it was not below 50 µM; in assay [3], 0.76 µM; in assay [4] it was not below 50 µM.

On to `COc1ccc(NC(=O)c2ccc(-c3cccc(F)c3)cc2)cc1NC(=O)CN1CCOCC1` [Example 81, 3′-fluoro-N-{4-methoxy-3-[(morpholin-4-ylacetyl)amino]phenyl}biphenyl-4-carboxamide], for which the IC50 is 0.29 µM in assay [1], not below 50 µM in assay [2], 0.32 µM in assay [3] and 9.8 µM in assay [4].

As for `O=C(CN1CCOCC1)Nc1cc(C(=O)Nc2ccc(-c3ccccc3)cc2)ccc1Br` [Example 13, N-(biphenyl-4-yl)-4-bromo-3-[(morpholin-4-ylacetyl)amino]benzamide], the half-inhibitory concentration (IC50) in assay [1] was 0.091 µM; in assay [2], not below 50 µM; in assay [3], 0.5 µM; in assay [4], 12 µM.

As for `COc1ccc(C(=O)Nc2ccc(-c3ccccc3)cc2)cc1NC(=O)C1(N2CCOCC2)CC1` [Example 101, N-(biphenyl-4-yl)-4-methoxy-3-({[1-(morpholin-4-yl)cyclopropyl]carbonyl}amino)benzamide], the IC50 in assay [1] was 0.00521 µM; in assay [2], not below 50 µM; in assay [3], 0.011 µM; in assay [4] it was 17 µM.

In the case of `Nc1ccc(-c2ccc(C(=O)Nc3ccc(OC(F)(F)F)c(NC(=O)CN4CCOCC4)c3)cc2)cc1` [Example 76, 4′-amino-N-{3-[(morpholin-4-ylacetyl)amino]-4-(trifluoromethoxy)phenyl}biphenyl-4-carboxamide], the IC50 in assay [1] was 0.487 µM; in assay [2], not below 50 µM; in assay [3] it was 0.039 µM; in assay [4] it was 11 µM.

For the compound `COc1ccc(NC(=O)c2ccc(-c3ccccc3)cc2)cc1NC(=O)CN1CCC[C@H](O)C1` [Example 40, N-[3-({[(3S)-3-hydroxypiperidin-1-yl]acetyl}amino)-4-methoxyphenyl]biphenyl-4-carboxamide], the IC50 in assay [1] was 2.3 µM; in assay [2] it was not below 50 µM; in assay [3], 0.046 µM; in assay [4] it was 12 µM.

As for `O=C(CN1CCOCC1)Nc1cc(C(=O)Nc2ccc(-c3ccccc3)cc2)ccc1OCC(F)(F)F` [Example 127, N-(biphenyl-4-yl)-3-[(morpholin-4-ylacetyl)amino]-4-(2,2,2-trifluoroethoxy)benzamide], the half-inhibitory concentration (IC50) in assay [1] was 0.0445 µM; in assay [2] it was not below 50 µM; in assay [3], 0.11 µM; in assay [4] it was 31 µM.

Regarding `COc1ccc(NC(=O)c2ccc(-c3cccc(C)c3)cc2)cc1NC(=O)CN1CCOCC1` [Example 71, N-{4-methoxy-3-[(morpholin-4-ylacetyl)amino]phenyl}-3′-methylbiphenyl-4-carboxamide], the 50% inhibitory concentration (IC50) in assay [1] is 2.25 µM; in assay [2] it was not below 50 µM; in assay [3], 2.5 µM; in assay [4] it was 25 µM.

For the compound `CCOc1ccc(NC(=O)c2ccc(-c3ccccc3)cc2)cc1NC(=O)CN1CCOCC1` [Example 85, N-{4-ethoxy-3-[(morpholin-4-ylacetyl)amino]phenyl}biphenyl-4-carboxamide], the IC50 in assay [1] is 0.0997 µM; in assay [2] it was not below 50 µM; in assay [3] it was 0.83 µM; in assay [4], not below 50 µM.

Turning to `CC(C)(C(=O)Nc1cc(C(=O)Nc2ccc(-c3ccccc3)cc2)ccc1C(F)(F)F)n1cccn1` [Example 4, N-(biphenyl-4-yl)-3-{[2-methyl-2-(1H-pyrazol-1-yl)propanoyl]amino}-4-(trifluoromethyl)benzamide], the IC50 in assay [1] is 0.112 µM; in assay [2] it was not below 50 µM; in assay [3] it was 0.4 µM; in assay [4], 8.6 µM.

In the case of `COc1ccc(NC(=O)c2ccc(-c3ccccc3)cc2)cc1NC(=O)C(C)(C)N1CCOCC1` [Example 28, N-(4-methoxy-3-{[2-methyl-2-(morpholin-4-yl)propanoyl]amino}phenyl)biphenyl-4-carboxamide], the IC50 was 1.79 µM in assay [1], not below 50 µM in assay [2], 2.4 µM in assay [3] and not below 50 µM in assay [4].

On to `O=C(CN1CCOCC1)Nc1cc(C(=O)Nc2ccc(-c3ccccc3)cc2)ccc1OC(F)(F)F` [Example 23, N-(biphenyl-4-yl)-3-[(morpholin-4-ylacetyl)amino]-4-(trifluoromethoxy)benzamide], for which the IC50 in assay [1] was 0.032 µM; in assay [2] it was not below 50 µM; in assay [3], 0.038 µM; in assay [4], not below 50 µM.
